System: T1, extracellular laccase (laccI) of A. pediades
T1 construct: native, partially purified from culture filtrate (Sephacryl 200), glycosylated monomer, 72 kDa native, 55-60 kDa denatured
Test: spectrophotometric oxidation at […] nm, Michaelis-Menten nonlinear fit
Type: biochemical, Agrocybe pediades
Conditions: pH 5.0; 0-2 mM substrate; air oxygen as co-substrate; read-out: apparent Km

- Km: 100 µM
Structure (SMILES): COc1cccc(OC)c1O [2,6-DMP, 2,6-dimethoxyphenol]
